Literature values, collected in US20060281715A1, “Phosphates of secondary alcohols” (priority 2003, published 2006).

Tests used:
[1] = test system: noradrenaline uptake; settings: enantiomers of venlafaxine
[2] = test system: seratonin uptake; settings: enantiomers of venlafaxine
[3] = major metabolite
[4] = oral administration

For `COc1ccc(C(CN(C)C)C2(O)CCCCC2)cc1` (single isomer, unassigned) [R-enantiomer], the “potency as inhibitor of noradrenaline uptake, compared with other enantiomer” value [1] is given as “more potent”.

In the case of `COc1ccc(C(CN(C)C)C2(O)CCCCC2)cc1` (single isomer, unassigned) [S-enantiomer], the “potency as inhibitor of seratonin uptake, compared with other enantiomer” value [2] is listed as “more potent”.

In the case of `CN(C)CC(c1ccc(O)cc1)C1(O)CCCCC1` (stereo not drawn) [O-desmethylvenlafaxine], the “potency compared with venlafaxine” value [3] is given as “equally potent” and the half-life (calculated) is given as 11 h.

In the case of `CC[C@H](C)C(=O)O[C@H]1C[C@H](O)C=C2C=C[C@H](C)[C@H](CC[C@@H](O)C[C@@H](O)CC(=O)O)[C@H]21` [Pravastatin], the “time to peak plasma levels” value [4] is listed as “about an hour and a half”.

In the case of `COc1ccc(C(CN(C)C)C2(O)CCCCC2)cc1` (stereo not drawn) [Venlafaxine], the “time to mean peak plasma concentrations” value (following single 25 to 150 mg doses) is listed as “approximately 2.4 hours”.
